How the values were obtained:
Experiment in all cases: Test E pre-/postemergence plant response
Type in all cases: in vivo
[1] = tested on: dallisgrass (Paspalum dilatatum); conditions: scale 0 to 100
Outline: (§1)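 Steps: sow seeds; apply compound preemergence in a non-phytotoxic solvent/surfactant formulation; in parallel, spray the same formulation postemergence on 1- to 4-leaf plants (2–18 cm); hold 14–21 days in a greenhouse; rate visually vs controls, 0 = no effect, 100 = complete control.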

[2] = tested on: common chickweed (Stellaria media); conditions: Postemergence, scale 0 to 100
Outline: as §1

[3] = tested on: black mustard (Brassica nigra); conditions: scale 0 to 100
Outline: as §1

[4] = tested on: southern (S.) sandbur (Cenchrus echinatus); conditions: scale 0 to 100
Outline: as §1

[5] = tested on: quackgrass (Elytrigia repens); conditions: scale 0 to 100
Outline: as §1

[6] = tested on: bermudagrass (Cynodon dactylon); conditions: scale 0 to 100
Outline: as §1

[7] = tested on: johnsongrass (Sorghum halepense); conditions: scale 0 to 100
Outline: as §1

[8] = tested on: common purslane (Portulaca oleracea); conditions: scale 0 to 100
Outline: as §1

[9] = tested on: surinam grass (Brachiaria decumbens); conditions: scale 0 to 100
Outline: as §1

[10] = tested on: barnyardgrass (Echinochloa crus-galli); conditions: scale 0 to 100
Outline: as §1

[11] = tested on: green foxtail (Setaria viridis); conditions: scale 0 to 100
Outline: as §1

[12] = tested on: common groundsel (Senecio vulgaris); conditions: Postemergence, scale 0 to 100
Outline: as §1

[13] = tested on: goosegrass (Eleusine indica); conditions: scale 0 to 100
Outline: as §1

[14] = tested on: large crabgrass (Digitaria sanguinalis); conditions: scale 0 to 100
Outline: as §1

## COC(=O)Oc1cnn(C)c(=O)c1-n1nc(-c2ccc(Cl)cc2)cc1C [Compound 33]
[1]; 8 g ai/ha, Preemergence
  Plant response rating, Dallisgrass: 25
[1]; 16 g ai/ha, Preemergence
  Plant response rating, Dallisgrass: 50
[1]; 31 g ai/ha, Preemergence
  Plant response rating, Dallisgrass: 80
[1]; 62 g ai/ha, Preemergence
  Plant response rating, Dallisgrass: 100
[1]; Postemergence, 8 g ai/ha
  Plant response rating, Dallisgrass: 35
[1]; Postemergence, 16 g ai/ha
  Plant response rating, Dallisgrass: 35
[1]; Postemergence, 31 g ai/ha
  Plant response rating, Dallisgrass: 65
[1]; Postemergence, 62 g ai/ha
  Plant response rating, Dallisgrass: 65
[2]; 8 g ai/ha
  Plant response rating, Chickweed: 0
[2]; 16 g ai/ha
  Plant response rating, Chickweed: 0
[2]; 31 g ai/ha
  Plant response rating, Chickweed: 0
[3]; 8 g ai/ha, Preemergence
  Plant response rating, Mustard, Black: 0
[3]; 16 g ai/ha, Preemergence
  Plant response rating, Mustard, Black: 0
[3]; 31 g ai/ha, Preemergence
  Plant response rating, Mustard, Black: 0
[3]; 62 g ai/ha, Preemergence
  Plant response rating, Mustard, Black: 0
[3]; Postemergence, 8 g ai/ha
  Plant response rating, Mustard, Black: 0
[3]; Postemergence, 16 g ai/ha
  Plant response rating, Mustard, Black: 0
[3]; Postemergence, 31 g ai/ha
  Plant response rating, Mustard, Black: 0
[3]; Postemergence, 62 g ai/ha
  Plant response rating, Mustard, Black: 0
[4]; 16 g ai/ha, Preemergence
  Plant response rating, Sandbur, S.: 90
[4]; 31 g ai/ha, Preemergence
  Plant response rating, Sandbur, S.: 90
[4]; 62 g ai/ha, Preemergence
  Plant response rating, Sandbur, S.: 100
[4]; Postemergence, 8 g ai/ha
  Plant response rating, Sandbur, S.: 65
[4]; Postemergence, 16 g ai/ha
  Plant response rating, Sandbur, S.: 75
[4]; Postemergence, 31 g ai/ha
  Plant response rating, Sandbur, S.: 80
[4]; Postemergence, 62 g ai/ha
  Plant response rating, Sandbur, S.: 90
[5]; 16 g ai/ha, Preemergence
  Plant response rating, Quackgrass: 20
[5]; 31 g ai/ha, Preemergence
  Plant response rating, Quackgrass: 20
[5]; 62 g ai/ha, Preemergence
  Plant response rating, Quackgrass: 60
[5]; Postemergence, 8 g ai/ha
  Plant response rating, Quackgrass: 0
[5]; Postemergence, 16 g ai/ha
  Plant response rating, Quackgrass: 30
[5]; Postemergence, 31 g ai/ha
  Plant response rating, Quackgrass: 60
[5]; Postemergence, 62 g ai/ha
  Plant response rating, Quackgrass: 70
[6]; 8 g ai/ha, Preemergence
  Plant response rating, Bermudagrass: 90
[6]; 16 g ai/ha, Preemergence
  Plant response rating, Bermudagrass: 90
[6]; 31 g ai/ha, Preemergence
  Plant response rating, Bermudagrass: 98
[6]; 62 g ai/ha, Preemergence
  Plant response rating, Bermudagrass: 100
[6]; Postemergence, 8 g ai/ha
  Plant response rating, Bermudagrass: 70
[6]; Postemergence, 16 g ai/ha
  Plant response rating, Bermudagrass: 80
[6]; Postemergence, 31 g ai/ha
  Plant response rating, Bermudagrass: 90
[6]; Postemergence, 62 g ai/ha
  Plant response rating, Bermudagrass: 95
[7]; 16 g ai/ha, Preemergence
  Plant response rating, Johnsongrass: 75
[7]; 31 g ai/ha, Preemergence
  Plant response rating, Johnsongrass: 85
[7]; 62 g ai/ha, Preemergence
  Plant response rating, Johnsongrass: 98
[7]; Postemergence, 8 g ai/ha
  Plant response rating, Johnsongrass: 50
[7]; Postemergence, 16 g ai/ha
  Plant response rating, Johnsongrass: 75
[7]; Postemergence, 31 g ai/ha
  Plant response rating, Johnsongrass: 98
[7]; Postemergence, 62 g ai/ha
  Plant response rating, Johnsongrass: 98
[8]; 16 g ai/ha, Preemergence
  Plant response rating, Purslane: 0
[8]; 31 g ai/ha, Preemergence
  Plant response rating, Purslane: 0
[8]; 62 g ai/ha, Preemergence
  Plant response rating, Purslane: 0
[8]; Postemergence, 8 g ai/ha
  Plant response rating, Purslane: 0
[8]; Postemergence, 16 g ai/ha
  Plant response rating, Purslane: 0
[8]; Postemergence, 31 g ai/ha
  Plant response rating, Purslane: 0
[8]; Postemergence, 62 g ai/ha
  Plant response rating, Purslane: 0
[9]; 16 g ai/ha, Preemergence
  Plant response rating, Surinam Grass: 98
[9]; 31 g ai/ha, Preemergence
  Plant response rating, Surinam Grass: 98
[9]; 62 g ai/ha, Preemergence
  Plant response rating, Surinam Grass: 100
[9]; Postemergence, 8 g ai/ha
  Plant response rating, Surinam Grass: 75
[9]; Postemergence, 16 g ai/ha
  Plant response rating, Surinam Grass: 75
[9]; Postemergence, 31 g ai/ha
  Plant response rating, Surinam Grass: 100
[9]; Postemergence, 62 g ai/ha
  Plant response rating, Surinam Grass: 100
[10]; 8 g ai/ha, Preemergence
  Plant response rating, Barnyardgrass: 65
[10]; 16 g ai/ha, Preemergence
  Plant response rating, Barnyardgrass: 80
[10]; 31 g ai/ha, Preemergence
  Plant response rating, Barnyardgrass: 100
[10]; 62 g ai/ha, Preemergence
  Plant response rating, Barnyardgrass: 100
[10]; Postemergence, 8 g ai/ha
  Plant response rating, Barnyardgrass: 95
[10]; Postemergence, 16 g ai/ha
  Plant response rating, Barnyardgrass: 100
[10]; Postemergence, 31 g ai/ha
  Plant response rating, Barnyardgrass: 100
[10]; Postemergence, 62 g ai/ha
  Plant response rating, Barnyardgrass: 100
[11]; 8 g ai/ha, Preemergence
  Plant response rating, Foxtail, Green: 40
[11]; 16 g ai/ha, Preemergence
  Plant response rating, Foxtail, Green: 65
[11]; 31 g ai/ha, Preemergence
  Plant response rating, Foxtail, Green: 100
[11]; 62 g ai/ha, Preemergence
  Plant response rating, Foxtail, Green: 100
[11]; Postemergence, 8 g ai/ha
  Plant response rating, Foxtail, Green: 60
[11]; Postemergence, 16 g ai/ha
  Plant response rating, Foxtail, Green: 65
[11]; Postemergence, 31 g ai/ha
  Plant response rating, Foxtail, Green: 75
[11]; Postemergence, 62 g ai/ha
  Plant response rating, Foxtail, Green: 95
[12]; 8 g ai/ha
  Plant response rating, Groundsel: 0
[12]; 16 g ai/ha
  Plant response rating, Groundsel: 0
[12]; 31 g ai/ha
  Plant response rating, Groundsel: 0
[12]; 62 g ai/ha
  Plant response rating, Groundsel: 0
[13]; 8 g ai/ha, Preemergence
  Plant response rating, Goosegrass: 75
[13]; 16 g ai/ha, Preemergence
  Plant response rating, Goosegrass: 98
[13]; 31 g ai/ha, Preemergence
  Plant response rating, Goosegrass: 98
[13]; 62 g ai/ha, Preemergence
  Plant response rating, Goosegrass: 100
[13]; Postemergence, 8 g ai/ha
  Plant response rating, Goosegrass: 35
[13]; Postemergence, 16 g ai/ha
  Plant response rating, Goosegrass: 35
[13]; Postemergence, 31 g ai/ha
  Plant response rating, Goosegrass: 75
[13]; Postemergence, 62 g ai/ha
  Plant response rating, Goosegrass: 75
[14]; 8 g ai/ha, Preemergence
  Plant response rating, Crabgrass, Large: 40
[14]; 16 g ai/ha, Preemergence
  Plant response rating, Crabgrass, Large: 75
[14]; 31 g ai/ha, Preemergence
  Plant response rating, Crabgrass, Large: 100
[14]; 62 g ai/ha, Preemergence
  Plant response rating, Crabgrass, Large: 100
[14]; Postemergence, 8 g ai/ha
  Plant response rating, Crabgrass, Large: 70
[14]; Postemergence, 16 g ai/ha
  Plant response rating, Crabgrass, Large: 75
[14]; Postemergence, 31 g ai/ha
  Plant response rating, Crabgrass, Large: 90
[14]; Postemergence, 62 g ai/ha
  Plant response rating, Crabgrass, Large: 95
